From PMC6017585, “Molecular Basis for Converting (2S)-Methylsuccinyl-CoA Dehydrogenase into an Oxidase” (Molecules : A Journal of Synthetic Chemistry and Natural …, 2017)

Assays:
[1] = target: T1, (2S)-methylsuccinyl-CoA dehydrogenase (Mcd) (Cereibacter sphaeroides, UniProt D3JV03, W315F/T317G/E377N); settings: dioxygen as electron acceptor, substrate made in situ from ethylmalonyl-CoA, pH 7.8, 30 °C
[2] = target: T2, (2S)-methylsuccinyl-CoA dehydrogenase (Mcd) (Cereibacter sphaeroides, UniProt D3JV03); settings: ETF as electron acceptor (55 µM), pH 7.8, 30 °C
[3] = target: (2S)-methylsuccinyl-CoA dehydrogenase (Mcd) (Cereibacter sphaeroides, UniProt D3JV03, T317G); settings: dioxygen as electron acceptor, substrate made in situ from ethylmalonyl-CoA, pH 7.8, 30 °C
[4] = target: T3, ETF (electron transfer flavoprotein) (Cereibacter sphaeroides, UniProt Q9AQC3+Q9AQC4); experiment: absorbance of ETF-bound FAD at […] nm; assay type: binding; settings: 55 µM ETF reduced by 0.1 µM Mcd, pH 7.8, 30 °C
T3 construct: gene etfA; plasmid pTE392 (pCDFDuet-1), alpha subunit N-terminal His6-tag, E. coli BL21 (DE3), heterodimer

[5] = target: T2, (2S)-methylsuccinyl-CoA dehydrogenase (Mcd); settings: holoenzyme, pH 7.7, 25 °C
[6] = target: T1, (2S)-methylsuccinyl-CoA dehydrogenase (Mcd); settings: FAD-reconstituted enzyme, 12 µM (2S)-methylsuccinyl-CoA, pH 7.5

T2 sequence (D3JV03 whole entry): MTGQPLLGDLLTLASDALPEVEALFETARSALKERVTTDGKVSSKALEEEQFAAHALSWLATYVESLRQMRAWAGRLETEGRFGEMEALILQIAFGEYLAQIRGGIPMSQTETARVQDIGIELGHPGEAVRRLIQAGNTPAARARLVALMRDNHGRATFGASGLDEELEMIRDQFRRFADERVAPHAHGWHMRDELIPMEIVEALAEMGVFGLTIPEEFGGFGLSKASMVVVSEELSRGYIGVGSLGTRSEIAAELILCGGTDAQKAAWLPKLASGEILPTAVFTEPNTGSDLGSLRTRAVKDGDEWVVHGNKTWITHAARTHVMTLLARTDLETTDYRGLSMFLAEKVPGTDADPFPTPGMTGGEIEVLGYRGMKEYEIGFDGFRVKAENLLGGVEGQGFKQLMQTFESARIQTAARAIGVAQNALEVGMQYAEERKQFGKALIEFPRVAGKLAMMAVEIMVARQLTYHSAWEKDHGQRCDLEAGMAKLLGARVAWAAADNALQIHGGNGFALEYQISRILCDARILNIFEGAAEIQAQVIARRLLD
T1 sequence (D3JV03 whole entry W315F/T317G/E377N): as the sequence (D3JV03 whole entry) above, with W315F, T317G, E377N counted along it
T3 sequence (Q9AQC4 entry or part of it): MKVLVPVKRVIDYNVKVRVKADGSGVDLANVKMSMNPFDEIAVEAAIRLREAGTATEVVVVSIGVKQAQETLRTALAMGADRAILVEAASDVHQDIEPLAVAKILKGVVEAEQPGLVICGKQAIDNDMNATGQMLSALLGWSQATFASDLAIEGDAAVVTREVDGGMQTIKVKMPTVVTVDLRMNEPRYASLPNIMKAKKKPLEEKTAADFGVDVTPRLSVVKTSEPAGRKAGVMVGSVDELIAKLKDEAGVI
T3 sequence (Q9AQC3 entry or part of it): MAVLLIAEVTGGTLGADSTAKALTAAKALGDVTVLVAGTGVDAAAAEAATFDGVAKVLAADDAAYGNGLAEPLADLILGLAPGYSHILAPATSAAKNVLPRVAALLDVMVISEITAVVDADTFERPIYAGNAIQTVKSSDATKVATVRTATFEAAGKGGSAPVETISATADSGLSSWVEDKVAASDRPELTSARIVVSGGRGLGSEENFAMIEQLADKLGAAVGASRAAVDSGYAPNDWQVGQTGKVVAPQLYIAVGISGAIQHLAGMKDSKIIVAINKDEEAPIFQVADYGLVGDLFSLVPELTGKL
Sequence of (2S)-methylsuccinyl-CoA dehydrogenase (Mcd) (Cereibacter sphaeroides, UniProt D3JV03, T317G) (D3JV03 whole entry T317G): as the sequence (D3JV03 whole entry) above, with T317G counted along it

Compound: C[C@@H](CC(=O)O)C(=O)SCCNC(=O)CCNC(=O)[C@H](O)C(C)(C)COP(=O)(O)OP(=O)(O)OC[C@H]1O[C@@H](n2cnc3c(N)ncnc32)[C@H](O)[C@@H]1OP(=O)(O)O (mixture of isomers) [(2S)-methylsuccinyl-CoA]
- LC mesaconyl-CoA formation; FAD absorbance at 440 nm [1]: The re-oxidation of the two enzymes was accompanied by product (mesaconyl-CoA) formation
- LC-MS mesaconyl-CoA formation; FAD / ETF absorbance at 440 nm [2]: Mcd showed a fast electron transfer from the CTC to ETF
- LC mesaconyl-CoA formation; FAD absorbance at 440 nm [3]: The re-oxidation of the two enzymes was accompanied by product (mesaconyl-CoA) formation

Compound: Cc1cc2nc3c(=O)[nH]c(=O)nc-3n(C[C@H](O)[C@H](O)[C@H](O)COP(=O)(O)OP(=O)(O)OC[C@H]3O[C@@H](n4cnc5c(N)ncnc54)[C@H](O)[C@@H]3O)c2cc1C [FAD]
- absorbance of ETF-bound FAD at 440 nm [4]: allowed for the direct observation of ETF-bound FAD
- co-purification; visible absorbance of bound flavin at 440 nm [5]: Concentration of Mcd, which eluted with bound FAD cofactor
- 50 kDa ultrafiltration of FAD; flow-through spectrum [6]: FAD does not dissociate from the enzyme during catalysis
